# Test results from US20030235811A1, “Crystallized mammalian carboxylesterase polypeptide and screening methods employing same” (priority 2002, published 2003).
# T1: wild type rCE (Oryctolagus cuniculus, UniProt P12337)
# T1 construct: made in house; host or cells: Spodoptera frugiperda Sf21 cells, baculovirus, secreted into the medium
# T1 sequence (P12337 19-559 limits assumed): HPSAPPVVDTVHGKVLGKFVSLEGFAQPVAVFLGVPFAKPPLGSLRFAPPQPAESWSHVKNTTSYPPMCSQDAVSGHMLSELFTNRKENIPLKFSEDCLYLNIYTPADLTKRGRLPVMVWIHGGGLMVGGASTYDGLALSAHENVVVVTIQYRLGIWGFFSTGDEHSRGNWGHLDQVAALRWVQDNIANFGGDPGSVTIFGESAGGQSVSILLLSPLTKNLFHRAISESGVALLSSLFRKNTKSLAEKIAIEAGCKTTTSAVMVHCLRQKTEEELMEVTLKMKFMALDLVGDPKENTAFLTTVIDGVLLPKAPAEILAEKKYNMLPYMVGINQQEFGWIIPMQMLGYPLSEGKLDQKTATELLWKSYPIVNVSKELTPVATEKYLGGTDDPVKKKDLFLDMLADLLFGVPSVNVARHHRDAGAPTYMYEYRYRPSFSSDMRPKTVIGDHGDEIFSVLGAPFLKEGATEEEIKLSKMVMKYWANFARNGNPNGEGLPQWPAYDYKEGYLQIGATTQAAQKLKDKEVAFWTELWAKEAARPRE
# T2: deglycosylated rCE (Oryctolagus cuniculus, UniProt P12337)
# T2 construct: made in house; host or cells: Spodoptera frugiperda Sf21 cells, baculovirus, secreted; then PNGase F treatment
# T2 sequence (P12337 19-559): T1 sequence (P12337 19-559 limits assumed)
# B1: human carboxylesterase 1 (hCE1), 62 kDa C-terminally-truncated form lacking six C-terminal amino acids (enzyme)
# chain: GHPSSPPVVDTVHGKVLGKFVSLEGFAQPVAIFLGIPFGKPPLGPLRFTPPQPAEPWSFVKNATSYPPMCTQDPKAGQLLSELFTNRKENIPLKLSEDCLYLNIYTPADLTKKNRLPVMVWIHGGGLMVGAASTYDGLALAAHENVVVVTIQYRLGIWGFFSTGDEHSRGNWGHLDQVAALRWVQDNIASFGGNPGSVTIFGESAGGESVSVLVLSPLAKNLFHRAISESGVALTSVLVKKGDVKPLAEQIAITAGCKTTTSAVMVHCLRQKTEEELLETTLKMKFLSLDLQGDPRESQPLLGTVIDGMLLLKTPEELQAERNFHTVPYMVGINKQEFGWLIPMLMSYPLSEGQLDQKTAMSLLWKSYPLVCIAKELIPEATEKYLGGTDDTVKKKDLFLDLIADVMFGVPSVIVARNHRDAGAPTYMYEFQYRPSFSSDMKPKTVIGDHGDELFSVFGAPFLKEGASEEEIRLSKMVMKFWANFARNGNPNGEGLPHWPEYNQKEGYLQIGANTQAAQKLKDKEVAFWTNLFAKKAVEKPPQT
# modifications: N-linked glycans (added to the model in refinement; positions not stated for the crystallised protein)
# notes: Expressed by baculovirus in Spodoptera frugiperda Sf21 cells and secreted into the culture media; crystallised with tacrine or homatropine; also called human CE; human CE1
# Experiments:
# [1] = humans; cited from earlier work
# wild type rCE = biological target: T1, wild type rCE; assay: CD thermal denaturation of wild type rCE in the presence of 4PP; type: binding, rabbit; details: 1 mM βME
# Experimental: (§1) Experiments were conducted by monitoring rCE denaturation in an Applied Photophysics PISTAR-180™ CD spectropolarimeter (Applied Photophysics, Surrey, United Kingdom). Deglycosylated rCE was generated by an 18-hour treatment with 0.25 μM PNGase F (Hampton Research, Laguna Niguel, Calif., United States of America) at 37° C., which cleaves the complete high-mannose glycosyl group. Removal of the carbohydrate chains was confirmed by SDS-PAGE. Wild type protein was also heated to 37° C. for 18 hours before CD experiments. Wild type or deglycosylated rCE (0.15 mg ml^−1 (2.5 μM); in 10 mM phosphate buffer, pH 7.0, and 1 mM fresh beta-mercaptoethanol (βME) to eliminate the stabilizing effect of disulfide linkages) was treated with no 4PP or with 0.016 mM, 0.16 mM, 1.6 mM or 10 mM 4PP. The temperature was increased from 20 to 98° C. while monitoring the ellipticity at 222 nm. […]
# (§2) To confirm the significance of the 4PP bound to the surface of rCE, thermal denaturation studies were performed using CD on both wild type and deglycosylated rCE. […] In the presence of fresh reducing agent (1 mM β-mercaptoethanol (βME)), thermal denaturation of wild type and deglycosylated rCE was monitored alone and in the presence of 10-(0.016 mM), 100-(0.16 mM), 1,000-(1.6 mM) and 6,000-fold (10 mM) molar excess 4PP (FIGS. 7-9). […]
# deglycosylated rCE = biological target: T2, deglycosylated rCE; assay: CD thermal denaturation of deglycosylated rCE in the presence of 4PP; type: binding, rabbit
# Experimental: as §1, §2
# hCE1 = hCE1 (Homo sapiens, UniProt P23141)
# Experimental: A 62 kDa C-terminally-truncated form of human carboxylesterase 1 (hCE1; SEQ ID NO: 4) that lacks six C-terminal amino acids, allowing secretion of the expressed enzyme (baculovirus in Spodoptera frugiperda Sf21 cells) into the culture media, was employed. hCE1 was purified by preparative isoelectric focusing and size exclusion chromatography (BIO-GEL® P-100, Bio-Rad, Laboratories, Hercules, Calif.) from protein-free culture media. Purified hCE1 was concentrated to 5 mg ml^−1 in 20 mM HEPES pH 7.4, and crystallized in the presence of either 10 mM tacrine or 100 mM homatropine. […]
# Diffraction data were collected at Stanford Synchrotron Radiation Laboratory (SSRL) beamline 9-1, and were processed and reduced using MOSFILM (Leslie, (1992), Joint CCP4+ESF-EAMCB Newsletter on Protein Crystallography, No. 26.). […] The structures of hCE1 were determined by molecular replacement using the structure of rabbit carboxylesterase (rCE; RCSB Protein ID No. 1K4Y; Bencharit et al., (2002) Nat.Struct.Biol. 9: 337), also an aspect of the present invention, as a search model (81% sequence identity). […] Manual adjustments and rebuilding were performed using the program O (Jones et al., (1991) Acta Crystallogr. A 47: 110-119) and σA-weighted electron density maps (Read, (1986) Acta Crystallogr. A 42: 140-149). […]
# [2] = biological target: the molecule itself; assay: X-ray crystal structure (self-association, homotrimer)
# Experimental: Diffraction data were collected at Stanford Synchrotron Radiation Laboratory (SSRL) beamline 9-1, and were processed and reduced using MOSFILM (Leslie, (1992), Joint CCP4+ESF-EAMCB Newsletter on Protein Crystallography, No. 26.). Crystals were of space group P2₁, and contained six molecules in the asymmetric unit for both the tacrine and homatropine complexes. See FIG. 12, in which each hCE1 is depicted in a different color. The structures of hCE1 were determined by molecular replacement using the structure of rabbit carboxylesterase (rCE; RCSB Protein ID No. 1K4Y; Bencharit et al., (2002) Nat.Struct.Biol. 9: 337), also an aspect of the present invention, as a search model (81% sequence identity). Non-identical side chains were trimmed prior to rotation and translation function searches in AmoRe (Navaza & Saludjian, (1997) Methods Enzymol. 276A: 581-594). The structures were refined using torsion angle dynamics in CNS with the maximum likelihood function target, and included an overall anisotropic B-factor and a bulk solvent correction. […] Manual adjustments and rebuilding were performed using the program O (Jones et al., (1991) Acta Crystallogr. A 47: 110-119) and σA-weighted electron density maps (Read, (1986) Acta Crystallogr. A 42: 140-149). […]
# Sequence of hCE1 (P23141 18-560 isoform P23141-3 limits assumed): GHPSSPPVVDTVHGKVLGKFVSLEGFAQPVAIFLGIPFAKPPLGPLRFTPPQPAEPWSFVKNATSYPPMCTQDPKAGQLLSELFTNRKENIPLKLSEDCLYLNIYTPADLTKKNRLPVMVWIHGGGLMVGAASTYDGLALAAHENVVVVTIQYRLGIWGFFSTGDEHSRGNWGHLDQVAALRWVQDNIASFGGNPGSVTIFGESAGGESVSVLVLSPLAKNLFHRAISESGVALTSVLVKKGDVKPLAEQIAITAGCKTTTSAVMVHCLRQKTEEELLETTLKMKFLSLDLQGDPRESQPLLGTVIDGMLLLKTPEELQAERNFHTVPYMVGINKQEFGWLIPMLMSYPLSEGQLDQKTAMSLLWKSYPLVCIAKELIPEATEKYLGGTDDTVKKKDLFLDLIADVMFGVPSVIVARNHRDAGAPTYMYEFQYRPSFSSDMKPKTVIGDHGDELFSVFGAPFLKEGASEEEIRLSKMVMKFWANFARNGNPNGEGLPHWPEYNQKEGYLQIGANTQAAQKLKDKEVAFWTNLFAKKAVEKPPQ
molecule,measurement,setting,value
CCc1c2c(nc3ccc(O)cc13)-c1cc3c(c(=O)n1C2)COC(=O)[C@]3(O)CC [SN-38],share of the SN-38 generated by activation of CPT-11 that makes it to the tumor,[1],~2%
"C1CCN(C2CCNCC2)CC1 [4PP, 4-piperidino-piperidine]",melting temperature (Tm) of wild type rCE,wild type rCE; 10- to 100-fold molar excess of 4PP (0.016-0.16 mM),51 °C
same,melting temperature (Tm) of wild type rCE,"wild type rCE; higher concentrations of 4PP (1.6 mM, 10 mM)",54-55 °C
same,effect on thermal stability of deglycosylated rCE,deglycosylated rCE; high concentrations of 4PP,stabilization occurs only with high concentrations
same,effect on thermal stability of deglycosylated rCE,deglycosylated rCE; lower concentrations of 4PP,destabilize the enzyme
"Nc1c2c(nc3ccccc13)CCCC2 [tacrine, 1,2,3,4-tetrahydro-9-acridinamine]",binding to hCE1,hCE1,binds effectively
B1,binding result,[2],binds
